From ChEMBL document CHEMBL5042492, “Noncovalent CDK12/13 dual inhibitors-based PROTACs degrade CDK12-Cyclin K complex and induce synthetic lethality with PARP inhibitor” (Eur J Med Chem, 2022)
Activity calls are given as the source filed them. No cut-off for these calls is given here.

Columns and labels:
[1] = biological target: T1, Protein cereblon/Cyclin-K/Cyclin-dependent kinase 12 (Homo sapiens, UniProt O75909+Q9NYV4+Q96SW2); test: Protac activity at human CRBN/CDK12/CycK in human Bel-7402 cells assessed as degradation of CDK12 at 3 uM measured after 24 hrs by Western blotting assay; assay type: cell-based
[2] = biological target: CDK12/Cyclin K (Homo sapiens, UniProt Q9NYV4); test: Inhibition of human CDK12 (696 to 1082 residues) /cyclinK (1 to 300 residues) using ac-YSPTSPpSYSPTSFpS-YSPTSPpSY-[PEG2]-RR-amid peptide as substrate in presence of ATP measured after 2 hrs by ADP-Glo kinase assay; assay type: protein-complex assay
[3] = biological target: T1, Protein cereblon/Cyclin-K/Cyclin-dependent kinase 12; test: Protac activity at human CRBN/CDK12/CycK in human MDA-MB-231 cells assessed as degradation of CDK12 at 3 uM measured after 24 hrs by Western blotting assay; assay type: cell-based
[4] = biological target: T1, Protein cereblon/Cyclin-K/Cyclin-dependent kinase 12; test: Protac activity at human CRBN/CDK12/CycK in human Bel-7402 cells assessed as degradation of CDK12 measured after 24 hrs by Western blotting assay; assay type: cell-based
Target sequence in this assay (O75909 whole entry, the tested form may be a part): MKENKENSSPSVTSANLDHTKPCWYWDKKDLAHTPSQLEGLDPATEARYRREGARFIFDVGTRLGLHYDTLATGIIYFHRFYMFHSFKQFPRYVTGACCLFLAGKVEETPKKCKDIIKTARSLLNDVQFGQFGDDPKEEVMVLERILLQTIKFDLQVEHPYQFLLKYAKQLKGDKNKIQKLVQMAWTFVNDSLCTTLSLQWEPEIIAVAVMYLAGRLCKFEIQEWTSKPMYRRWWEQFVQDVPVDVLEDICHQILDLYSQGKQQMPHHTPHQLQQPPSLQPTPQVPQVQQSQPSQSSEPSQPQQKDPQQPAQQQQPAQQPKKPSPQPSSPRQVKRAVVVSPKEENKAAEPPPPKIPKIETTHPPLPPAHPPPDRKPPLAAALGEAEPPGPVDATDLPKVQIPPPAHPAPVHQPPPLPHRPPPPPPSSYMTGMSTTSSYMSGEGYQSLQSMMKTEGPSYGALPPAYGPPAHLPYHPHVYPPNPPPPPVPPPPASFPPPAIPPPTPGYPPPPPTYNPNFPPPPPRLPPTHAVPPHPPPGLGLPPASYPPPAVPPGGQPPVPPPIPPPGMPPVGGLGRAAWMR
Target sequence in this assay (Q9NYV4 whole entry, the tested form may be a part): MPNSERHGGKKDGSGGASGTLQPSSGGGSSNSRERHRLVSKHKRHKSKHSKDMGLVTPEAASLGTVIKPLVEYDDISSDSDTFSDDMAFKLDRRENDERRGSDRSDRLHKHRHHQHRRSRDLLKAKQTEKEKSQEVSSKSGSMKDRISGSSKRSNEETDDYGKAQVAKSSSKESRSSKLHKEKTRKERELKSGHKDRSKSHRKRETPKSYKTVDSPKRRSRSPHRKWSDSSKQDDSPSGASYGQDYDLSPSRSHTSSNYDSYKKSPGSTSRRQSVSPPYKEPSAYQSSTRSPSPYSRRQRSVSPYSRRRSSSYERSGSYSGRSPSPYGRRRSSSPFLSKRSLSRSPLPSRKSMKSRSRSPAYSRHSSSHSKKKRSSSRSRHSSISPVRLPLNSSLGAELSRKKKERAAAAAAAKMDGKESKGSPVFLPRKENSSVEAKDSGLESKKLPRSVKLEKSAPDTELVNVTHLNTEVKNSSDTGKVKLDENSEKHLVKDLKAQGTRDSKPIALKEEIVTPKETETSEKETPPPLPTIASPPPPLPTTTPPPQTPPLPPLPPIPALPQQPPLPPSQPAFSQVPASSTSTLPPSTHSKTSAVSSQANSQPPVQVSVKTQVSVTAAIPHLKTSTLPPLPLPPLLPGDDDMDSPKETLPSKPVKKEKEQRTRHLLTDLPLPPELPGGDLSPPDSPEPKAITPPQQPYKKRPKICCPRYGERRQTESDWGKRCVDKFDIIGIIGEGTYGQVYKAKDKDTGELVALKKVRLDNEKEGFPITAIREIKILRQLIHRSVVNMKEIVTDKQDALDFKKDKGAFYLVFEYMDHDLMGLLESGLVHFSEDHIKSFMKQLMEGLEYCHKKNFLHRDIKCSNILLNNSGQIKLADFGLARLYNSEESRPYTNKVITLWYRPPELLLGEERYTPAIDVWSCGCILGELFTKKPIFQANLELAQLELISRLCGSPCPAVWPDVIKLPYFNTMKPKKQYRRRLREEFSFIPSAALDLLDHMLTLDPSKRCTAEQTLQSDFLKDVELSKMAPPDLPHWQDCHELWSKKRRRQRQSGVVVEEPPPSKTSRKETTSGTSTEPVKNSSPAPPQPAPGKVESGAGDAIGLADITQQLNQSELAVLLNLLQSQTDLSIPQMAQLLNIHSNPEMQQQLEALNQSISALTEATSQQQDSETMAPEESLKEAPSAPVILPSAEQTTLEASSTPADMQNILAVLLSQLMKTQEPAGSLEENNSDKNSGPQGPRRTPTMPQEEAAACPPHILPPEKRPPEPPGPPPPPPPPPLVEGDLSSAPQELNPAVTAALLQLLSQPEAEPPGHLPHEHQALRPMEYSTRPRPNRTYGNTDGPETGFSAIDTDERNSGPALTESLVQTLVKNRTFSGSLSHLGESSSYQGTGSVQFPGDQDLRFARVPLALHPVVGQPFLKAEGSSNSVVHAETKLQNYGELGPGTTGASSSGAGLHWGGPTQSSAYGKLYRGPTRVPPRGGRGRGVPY
Target sequence in this assay (Q96SW2 whole entry, the tested form may be a part): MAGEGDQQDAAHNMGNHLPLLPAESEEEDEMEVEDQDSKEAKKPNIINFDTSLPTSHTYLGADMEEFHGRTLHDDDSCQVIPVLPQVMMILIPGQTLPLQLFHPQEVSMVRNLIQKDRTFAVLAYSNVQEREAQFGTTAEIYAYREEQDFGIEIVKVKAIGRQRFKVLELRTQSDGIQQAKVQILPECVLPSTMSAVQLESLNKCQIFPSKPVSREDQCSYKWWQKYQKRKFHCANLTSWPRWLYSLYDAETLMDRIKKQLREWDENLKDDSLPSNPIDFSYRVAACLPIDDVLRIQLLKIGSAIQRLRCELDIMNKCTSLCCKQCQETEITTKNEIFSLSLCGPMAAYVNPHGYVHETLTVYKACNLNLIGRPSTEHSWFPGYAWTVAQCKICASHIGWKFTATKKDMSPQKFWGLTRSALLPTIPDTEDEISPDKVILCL

[5] = biological target: T1, Protein cereblon/Cyclin-K/Cyclin-dependent kinase 12; test: Protac activity at human CRBN/CDK12/CycK in human Bel-7402 cells assessed as degradation of CycK measured after 24 hrs by Western blotting assay; assay type: cell-based
Target sequence in this assay (O75909 whole entry, the tested form may be a part): as the sequence (O75909 whole entry, the tested form may be a part) above
Target sequence in this assay (Q9NYV4 whole entry, the tested form may be a part): as the sequence (Q9NYV4 whole entry, the tested form may be a part) above
Target sequence in this assay (Q96SW2 whole entry, the tested form may be a part): as the sequence (Q96SW2 whole entry, the tested form may be a part) above

[6] = biological target: T1, Protein cereblon/Cyclin-K/Cyclin-dependent kinase 12; test: Protac activity at human CRBN/CDK12/CycK in human MDA-MB-231 cells assessed as degradation of CDK12 measured after 24 hrs by Western blotting assay; assay type: cell-based
Target sequence in this assay (O75909 whole entry, the tested form may be a part): as the sequence (O75909 whole entry, the tested form may be a part) above
Target sequence in this assay (Q9NYV4 whole entry, the tested form may be a part): as the sequence (Q9NYV4 whole entry, the tested form may be a part) above
Target sequence in this assay (Q96SW2 whole entry, the tested form may be a part): as the sequence (Q96SW2 whole entry, the tested form may be a part) above

[7] = biological target: T1, Protein cereblon/Cyclin-K/Cyclin-dependent kinase 12; test: Protac activity at human CRBN/CDK12/CycK in human MDA-MB-231 cells assessed as degradation of CycK measured after 24 hrs by Western blotting assay; assay type: cell-based
Target sequence in this assay (O75909 whole entry, the tested form may be a part): as the sequence (O75909 whole entry, the tested form may be a part) above
Target sequence in this assay (Q9NYV4 whole entry, the tested form may be a part): as the sequence (Q9NYV4 whole entry, the tested form may be a part) above
Target sequence in this assay (Q96SW2 whole entry, the tested form may be a part): as the sequence (Q96SW2 whole entry, the tested form may be a part) above

[8] = biological target: T1, Protein cereblon/Cyclin-K/Cyclin-dependent kinase 12; test: Protac activity at human CRBN/CDK12/CycK in human Bel-7402 cells assessed as degradation of CDK7 up to 30 uM measured after 24 hrs by Western blotting assay; assay type: cell-based; settings: dose microM <=30, time 24.0 hrs
[9] = biological target: T1, Protein cereblon/Cyclin-K/Cyclin-dependent kinase 12; test: Protac activity at human CRBN/CDK12/CycK in human MDA-MB-231 cells assessed as degradation of CDK7 up to 30 uM measured after 24 hrs by Western blotting assay; assay type: cell-based; settings: dose microM <=30, time 24.0 hrs
[10] = biological target: T1, Protein cereblon/Cyclin-K/Cyclin-dependent kinase 12; test: Protac activity at human CRBN/CDK12/CycK in human Bel-7402 cells assessed as degradation of CDK9 upto 30 uM measured after 24 hrs by Western blotting assay; assay type: cell-based; settings: dose microM <=30, time 24.0 hrs
[11] = biological target: T1, Protein cereblon/Cyclin-K/Cyclin-dependent kinase 12; test: Protac activity at human CRBN/CDK12/CycK in human Bel-7402 cells assessed as RNAP2 CTD Ser2 phosphorylation level at 0.1 to 30 uM measured after 24 hrs by Western blotting assay; assay type: cell-based; settings: dose 0.1-30 µM
[12] = biological target: T1, Protein cereblon/Cyclin-K/Cyclin-dependent kinase 12; test: Protac activity at human CRBN/CDK12/CycK in human MDA-MB-231 cells assessed as degradation of CDK9 up to 30 uM measured after 24 hrs by Western blotting assay; assay type: cell-based; settings: dose microM <=30, time 24.0 hrs
[13] = biological target: T1, Protein cereblon/Cyclin-K/Cyclin-dependent kinase 12; test: Protac activity at human CRBN/CDK12/CycK in human MDA-MB-231 cells assessed as RNAP2 CTD Ser2 phosphorylation level at 0.1 to 30 uM measured after 24 hrs by Western blotting assay; assay type: cell-based; settings: dose 0.1-30 µM
[14] = biological target: T1, Protein cereblon/Cyclin-K/Cyclin-dependent kinase 12; test: Protac activity at human CRBN/CDK12/CycK in human Bel-7402 (CRBN/KO) cells assessed as degradation of CDK12 measured after 24 hrs by Western blotting assay; assay type: cell-based
[15] = biological target: T1, Protein cereblon/Cyclin-K/Cyclin-dependent kinase 12; test: Protac activity at human CRBN/CDK12/CycK in human MDA-MB-231(CRBN/KO) cells assessed as degradation of CDK12 measured after 24 hrs by Western blotting assay; assay type: cell-based
[16] = biological target: T1, Protein cereblon/Cyclin-K/Cyclin-dependent kinase 12; test: Protac activity at human CRBN/CDK12/CycK in human Bel-7402 cells assessed as downregulation of ATM measured after 6 hrs by RT-qPCR method; assay type: cell-based
[17] = biological target: T1, Protein cereblon/Cyclin-K/Cyclin-dependent kinase 12; test: Protac activity at human CRBN/CDK12/CycK in human MDA-MB-231 cells assessed as downregulation of ATM measured after 6 hrs by RT-qPCR method; assay type: cell-based
[18] = biological target: T1, Protein cereblon/Cyclin-K/Cyclin-dependent kinase 12; test: Protac activity at human CRBN/CDK12/CycK in human Bel-7402 cells assessed as downregulation of ATR measured after 6 hrs by RT-qPCR method; assay type: cell-based
[19] = biological target: T1, Protein cereblon/Cyclin-K/Cyclin-dependent kinase 12; test: Protac activity at human CRBN/CDK12/CycK in human MDA-MB-231 cells assessed as downregulation of ATR measured after 6 hrs by RT-qPCR method; assay type: cell-based
[20] = system: MDA-MB-231; test: Synergistic antiproliferative activity against human MDA-MB-231 cells in presence of 1 uM of Olaparib at 1 uM for 10 days by SRB staining based clone formation assay relative to control; assay type: functional; settings: MDA-MB-231, 240 h, time 10 day
[21] = system: MDA-MB-231; test: Synergistic antiproliferative activity against human MDA-MB-231 cells in presence of 3 uM of Olaparib at 1 uM measured after 10 days by SRB staining based clone formation assay relative to control; assay type: functional; settings: MDA-MB-231, 240 h, time 10 day
[22] = system: MDA-MB-231; test: Synergistic antiproliferative activity against human MDA-MB-231 cells in presence of 1 uM of Olaparib at 3 uM measured after 10 days by SRB staining based clone formation assay relative to control; assay type: functional; settings: MDA-MB-231, 240 h, time 10 day
[23] = system: MDA-MB-231; test: Synergistic antiproliferative activity against human MDA-MB-231 cells in presence of 3 uM of Olaparib at 3 uM measured after 10 days by SRB staining based clone formation assay relative to control; assay type: functional; settings: MDA-MB-231, 240 h, time 10 day
[24] = biological target: T1, Protein cereblon/Cyclin-K/Cyclin-dependent kinase 12; test: Protac activity at human CRBN/CDK12/CycK in human Bel-7402 cells assessed as downregulation of Mcl-1 level upto 30 uM measured after 24 hrs by Western blotting assay; assay type: cell-based; settings: dose microM <=30, time 24.0 hrs

Sequence of CDK12/Cyclin K (O75909 whole entry, the tested form may be a part): as the sequence (O75909 whole entry, the tested form may be a part) above
Sequence of CDK12/Cyclin K (Q9NYV4 whole entry, the tested form may be a part): as the sequence (Q9NYV4 whole entry, the tested form may be a part) above

Activity [1]: Active | IC50 [2]: 645 nM | Activity [3]: Active | DC50 [4]: 416 nM | DC50 [5]: 412 nM | DC50 [6]: 416 nM | DC50 [7]: 412 nM | Activity [8]: inactive | Activity [9]: inactive | Activity [10]: inactive | Activity [11]: Active | Activity [12]: inactive | Activity [13]: Active | Activity [14]: inactive | Activity [15]: inactive | Activity [16]: Active | Activity [17]: Active | Activity [18]: Active | Activity [19]: Active | Activity [24]: inactive
Compound: CC(C)n1cnc2c(NCc3nc4cc(F)c(NCCCCCCCCNC(=O)COc5cccc6c5C(=O)N(C5CCC(=O)NC5=O)C6=O)cc4[nH]3)nc(N3CCOCC3)nc21 (centres undefined)
inhibition at 1 µM [20]: 67.8% | inhibition at 1 µM [21]: 99.6% | inhibition at 3 µM [22]: 99.2% | inhibition at 3 µM [23]: 99.8%
